From patent US9328138B2 (priority 2011, dated 2016)

Assays:
[1] = target: T1, HCV genotype 1b (BK) NS3 modified enzyme with a R155K mutation (Hepatitis C virus genotype 1b, UniProt P26663, R1181K); experiment: HCV NS3 protease time-resolved fluorescence (TRF) assay, genotype 1b R155K; type: biochemical; settings: Ki 1b R155K
T1 construct: HCV genotype 1b (BK) NS3 modified enzyme
How it was run: (§1)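 IC50 values derive from 4-parameter fitting of TRF signal after a 6 h room-temperature cleavage of 25 nM peptide substrate by NS3/NS4A that had been pre-incubated 10 min with compound.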

[2] = target: HCV NS3 protease genotype 3a (3A-1) (Hepatitis C virus genotype 3a, UniProt Q81258); experiment: HCV NS3 protease time-resolved fluorescence (TRF) assay, genotype 3a; type: biochemical; settings: Ki 3a
How it was run: as §1

[3] = first of two values printed in the cell (not explained)
[4] = second of two values printed in the cell (not explained)
[5] = genotype 1b (BK) NS3 R155K, single value

SMILES | Ki [1, 3] [nM] | Ki [1, 4] [nM] | Ki [2] [nM] | Ki [1, 5] [nM]
C=C[C@@H]1C[C@]1(NC(=O)[C@@H]1C[C@@H]2CN1C(=O)[C@H](C(C)(C)C)NC(=O)O[C@@H]1C[C@H]1CCCCCc1c(nc3ccccc3c1-c1ccccn1)O2)C(=O)NS(=O)(=O)C1(C)CC1 [Example 245, (1aR,5S,8S,10R,22aR)-5-tert-butyl-N-[(1R,2S)-2-ethenyl-1-{[(1-methylcyclopropyl)sulfonyl]carbamoyl}cyclopropyl]-3,6-dioxo-17-(pyridin-2-yl)-1,1a,3,4,5,6,9,10,18,19,20,21,22,22a-tetradecahydro-8H-7,10-methanocyclopropa[18,19][1,10,3,6]dioxadiazacyclononadecino[11,12-b]quinoline-8-carboxamide] | 0.546 | 1.41 | 128 | –
C=C[C@@H]1C[C@]1(NC(=O)[C@@H]1C[C@@H]2CN1C(=O)[C@H](C(C)(C)C)NC(=O)O[C@@H]1CCC[C@H]1CCCCCc1c(nc3ccccc3c1OCCN1CCOCC1)O2)C(=O)NS(=O)(=O)N1CCOCC1 [Example 112, (3aR,7S,10S,12R,24aR)-7-tert-butyl-N-{(1R,2S)-2-ethenyl-1-[(morpholin-4-ylsulfonyl)carbamoyl]cylcopropyl}-19-[2-(morpholin-4-yl)ethoxy]-5,8-dioxo-1,2,3,3a,5,6,7,8,11,12,20,21,22,23,24,24a-hexadecahydro-10H-9,12-methanocyclopenta[18,19] [1,10,3,6] dioxadiazacyclononadecino [11,12-b]quinoline-10-carboxamide] | – | – | 620 | 24
COc1c2c(nc3ccccc13)O[C@@H]1C[C@H]3C(=O)N[C@]4(C(=O)NS(=O)(=O)C5(C)CC5)C[C@H]4/C=C\CCCCC[C@H](NC(=O)O[C@@H]4C[C@H]4CCC/C=C/2)C(=O)N3C1 [Example 300, (1aR,5S,11Z,12aS,13aR,16S,19R,27E,31aR)-26-methoxy-N-[(1-methylcyclopropyl)sulfonyl]-3,15,33-trioxo-1,1a,3,4,5,6,7,8,9,10,12a,13,15,16,18,19,29,30,31,31a-icosahydro-5,17:16,19-dimethanodicyclopropa[12,13:28,29][1,20,3,14,17]dioxatriazacyclononacosino[21,22-b]quinoline-13a(14H)-carboxamide] | – | – | 7.1 | 0.23
C=C[C@@H]1C[C@]1(NC(=O)[C@@H]1C[C@@H]2CN1C(=O)[C@H](C(C)(C)C)NC(=O)O[C@@H]1CCC[C@H]1CC/C=C/Cc1c(nc3ccccc3c1OCCN1CCOCC1)O2)C(=O)NS(=O)(=O)C1CC1 [Example 51, (3aR,7S,10S,12R,21E,24aS)-7-tert-butyl-N-{(1R,2S)-1-[(cyclopropylsulfonyl)carbamoyl]-2-ethenylcyclopropyl}-19-[2-(morpholin-4-yl)ethoxy]-5,8-dioxo-1,2,3,3a,5,6,7,8,11,12, 20,23,24,24a-tetradeca hydro-10H-9,12-methanocyclopenta[18,19][1,10,3,6] dioxadiazacyclononadecino[11,12-b] quinoline-10-carboxamide] | – | – | 1.9 | 0.21
C=C[C@@H]1C[C@]1(NC(=O)[C@@H]1C[C@@H]2CN1C(=O)[C@H](C1CCCCC1)NC(=O)O[C@@H]1C[C@H]1CCCCCc1c(nc3ccccc3c1OC1CCN(CCS(C)(=O)=O)CC1)O2)C(=O)NS(=O)(=O)C1(C)CC1 [Example 271, (1aR,5S,8S,10R,22aR)-5-cyclohexyl-N-[(1R,2S)-2-ethenyl-1-{[(1-methylcyclopropyl)sulfonyl]carbamoyl}cyclopropyl]-17-({1-[2-(methylsulfonyl)ethyl]piperidin-4-yl}oxy)-3,6-dioxo-1,1a,3,4,5,6,9,10,18,19,20,21,22,22a-tetradecahydro-8H-7,10-methanocyclopropa[18,19][1,10,3,6]dioxadiazacyclononadecino[11,12-b]quinoline-8-carboxamide] | 0.023 | 0.215 | 5.2 | –
C=C[C@@H]1C[C@]1(NC(=O)[C@@H]1C[C@@H]2CN1C(=O)[C@H](C1CCCC1)NC(=O)O[C@@H]1CCC[C@H]1CC/C=C/Cc1c(nc3ccccc3c1OC(C)=O)O2)C(=O)NS(=O)(=O)C1CC1 [Example 39, (3aR,7S,10S,12R,21E,24aS)-7-cyclopentyl-10-({(1R,2S)-1-[(cyclopropylsulfonyl)carbamoyl]-2-ethenylcyclopropyl}carbamoyl)-5,8-dioxo-1,2,3,3a,5,6,7,8,11,12,20,23,24,24a-tetradecahydro-10H-9,12-methanocyclopenta[18,19][1,10,3,6]dioxadiazacyclononadecino[11,12-b]quinolin-19-yl acetate] | – | – | 3.5 | 0.13
C=C[C@@H]1C[C@]1(NC(=O)[C@@H]1C[C@@H]2CN1C(=O)[C@H](C(C)(C)C)NC(=O)O[C@@H]1C[C@H]1CCCCCc1c(nc3cc(C(C)C)ccc3c1OCCCN1CCCC1)O2)C(=O)NS(=O)(=O)C1(C)CC1 [Example 159, (1aR,5S,8S,10R,22aR)-5-tert-butyl-N-[(1R,2S)-2-ethenyl-1-{[(1-methylcyclopropyl)sulfonyl]carbamoyl}cyclopropyl]-3,6-dioxo-14-(propan-2-yl)-17-[3-(pyrrolidin-1-yl)propoxy]-1,1a,3,4,5,6,9, 10,18,19,20,21,22,22a-tetradecahydro-8H-7,10-methanocyclopropa[18,19] [1,10,3,6]dioxadiazacyclononadecino [11,12-b]quinoline-8-carboxamide] | – | – | 0.53 | 0.05
C=C[C@@H]1CC1(NC(=O)[C@@H]1C[C@@H]2CN1C(=O)[C@H](C1CCOCC1)NC(=O)O[C@@H]1C[C@H]1CCCCCc1c(nc3ccccc3c1OC1CCN(C)CC1)O2)C(=O)NS(=O)(=O)C1(C)CC1 (stereo partly drawn) [Example 252, potassium {[(1R,2S)-2-ethenyl-1-({[(1aR,5S,8S,10R,22aR)-17-[(1-methylpiperidin-4-yl)oxy]-3,6-dioxo-5-(tetrahydro-2H-pyran-4-yl)-1,1a,3,4,5,6,9,10,18,19,20,21,22,22a-tetradecahydro-8H-7,10-methanocyclopropa[18,19][1,10,3,6]dioxadiazacyclononadecino[11,12-b]quinolin-8-yl]carbonyl}amino)cyclopropyl]carbonyl}[(1-methylcyclopropyl)sulfonyl]azanide] | 0.009 | 0.022 | 0.088 | –
CC[C@@H]1C[C@]1(NC(=O)[C@@H]1C[C@@H]2CN1C(=O)[C@H](C1CCCC1)NC(=O)O[C@@H]1CCC[C@H]1CC/C=C/Cc1c(nc3ccccc3c1OC)O2)C(=O)NS(=O)(=O)C1CC1 [Example 5, (3aR,7S,10S,12R,21E,24aS)-7-cyclopentyl-N-{(1R,2R)-1-[(cyclopropylsulfonyl)carbamoyl]-2-ethylcyclopropyl}-19-methoxy-5,8-dioxo-1,2,3,3a, 5,6,7,8,11,12,20,23,24,24a-tetradecahydro-10H-9,12-methanocyclopenta[18,19][1,10,3,6] dioxadiazacyclononadecino[11,12-b]quinoline-10-carboxamide] | – | – | 17 | 0.59
C=C[C@@H]1C[C@]1(NC(=O)[C@@H]1C[C@@H]2CN1C(=O)[C@H](C(C)(C)C)NC(=O)O[C@@H]1C[C@H]1CCCCCc1c(nc3ccccc3c1OCCCN(C)C)O2)C(=O)NS(=O)(=O)C1(C)CC1 [Example 114, (1aR,5S,8S,10R,22aR)-5-tert-butyl-17-[3-(dimethylamino)propoxy]-N-[(1R,2S)-2-ethenyl-1-{[(1-methylcyclopropyl)sulfonyl]carbamoyl}cyclopropyl]-3,6-dioxo-1,1a,3,4,5,6,9,10,18,19,20,21,22,22a-tetradecahydro-8H-7,10-methanocyclo propa[18,19][1,10,3,6]dioxadiazacyclo-nonadecino[11,12-b] quinoline-8-carboxamide] | – | – | 0.25 | 0.051
C=C[C@@H]1C[C@]1(NC(=O)[C@@H]1C[C@@H]2CN1C(=O)[C@H](C(C)(C)C)NC(=O)O[C@@H]1C[C@H]1CCCCCc1c(nc3ccccc3c1OC1CCN(CC3CC3)CC1)O2)C(=O)NS(=O)(=O)C1(C)CC1 [Example 230, (1aR,5S,8S,10R,22aR)-5-tent-butyl-17-{[1-(cyclopropylmethyl)piperidin-4-yl]oxy}-N-[(1R,2S)-2-ethenyl-1-{[(1-methylcyclopropyl)sulfonyl]carbamoyl}cyclopropyl]-3,6-dioxo-1,1a,3,4,5,6,9,10,18,19,20,21,22,22a-tetradecahydro-8H-7,10-methanocyclopropa[18,19][1,10,3,6] dioxadiazacyclononadecino[11,12-b]quinoline-8-carboxamide] | – | – | 0.38 | 0.065
C=C[C@@H]1C[C@]1(NC(=O)[C@@H]1C[C@@H]2CN1C(=O)[C@H](C(C)(C)C)NC(=O)O[C@@H]1C[C@H]1CCCCCc1c(nc3ccccc3c1OC1CNC1)O2)C(=O)NS(=O)(=O)C1(C)CC1 [Example 222, (1aR,5S,8S,10R,22aR)-17-(azetidin-3-yloxy)-5-tert-butyl-N-[(1R,2S)-2-ethenyl-1-{[(1-methylcyclopropyl)sulfonyl]carbamoyl}cyclopropyl]-3,6-dioxo-1,1a,3,4,5,6,9,10,18,19,20,21,22,22a-tetradecahydro-8H-7,10-methanocyclopropa[18,19][1,10,3,6]dioxadiazacyclononadecino[11,12-b]quinoline-8-carboxamide] | – | – | 0.44 | 0.045
